# Measurements: patent US11352371B2, “Thienopyrimidine derivatives as ACC inhibitors and uses thereof” (Gilead Sciences, Inc., priority 2019, dated 2022)
# pEC50: −log10 of the molar value.
# Columns and labels:
# [1] = Rat liver/plasma ratio determination; format: in vivo, male Sprague-Dawley (SD) rats; conditions: male SD rats, single oral dose 5 mg/kg or 10 mg/kg; for L/P Ratio (2 h): liver to plasma concentration 2 hours after dosing; for L/P Ratio (24 h): liver to plasma concentration 24 hours after dosing
# Protocol: Liver to plasma (L/P) ratios of certain example compounds were determined in male Sprague-Dawley (SD) rats 2 hours and 24 hours after their administration.
# The in vivo phases of the rat L/P ratio determinations for example compounds were conducted at Covance Laboratories (Madison, Wis.) or Charles River Laboratories (Worcester, Wash.). Animals were housed and handled in accordance with the Guide for the Care and Use of Laboratory Animals, Institute of Laboratory Animal Resources. The protocols were reviewed and approved by Institutional Animal Care and Use Committees (IACUC). Male Sprague-Dawley (SD) rats weighing approximately 300 g were fasted overnight prior to dosing and up to 4 hours after dosing. Each example compound was dosed at a single dose at 5 mg/kg or 10 mg/kg orally by gavage to male SD rats (n=3 rats/group). The aqueous formulation contained ethyl alcohol and polyethylene glycol 300. Approximately 100 μL plasma and 0.5 g liver samples were collected from each animal either 2 hours or 24 hours after dosing. The liver samples were homogenized by hard tissue homogenizer probes (Omni International, Kennesaw, Ga.) with 4× extraction buffer. For LC-MS/MS analysis, plasma and liver samples were prepared through protein precipitation extraction and analyzed on a Scitex API 5500 or 6500 LC-MS/MS instrument (Applied Biosystems, Foster City, Calif.). Analyte was eluted on a 1.7 μm 50×2.1 mm Acquity UPLC BEH C18 column (Waters, Milford, Mass.) using mobile phase containing 0.1% formic acid and a linear gradient from 55% to 95% acetonitrile at a flow rate of 800 μL/min. A liver/plasma ratio for each compound was calculated using the liver and plasma concentrations at the corresponding time point (2 hours or 24 hours). Noncompartmental pharmacokinetic parameters were calculated using Phoenix 32 (Pharsight Corporation, Mountain View, Calif.).
# To assess the liver loading potential of the compounds, rat liver/plasma ratios (Rat L/P Ratio) values were determined for example compounds and are listed below in Table 1 for 2 hour and 24 hour timepoints (Rat L/P Ratio (2h/24h)).
# HepG2 cells = experiment: In vitro De Novo Lipogenesis (DNL) assay, 13C-acetate incorporation into palmitic acid; format: cell-based; conditions: Homo sapiens, 1 hour preincubation, 24 hours with 10 mM 13C-labeled acetate
# Protocol: De Novo Lipogenesis (DNL) was measured in vitro in HepG2 cells by quantifying the incorporation of ^13C-labeled acetate into palmitic acid.
# HepG2 cells were plated in growth medium (DMEM (Corning cat #15-018-CM) supplemented with 10% FBS (HyClone cat #SH30071-03), and 1× penicillin, streptomycin, glutamine (Corning cat #30-009-CI)) at 10,000 cells/well in a 384-well cell culture-treated plate (Greiner cat #781091). The cells were then incubated overnight at 37° C., 5% CO2. The next day, the cells were washed twice with sterile DPBS (Corning cat #21-031-CM) and the culture medium was changed to fresh growth medium. The compounds of interest were dosed to cells, followed by a 1 hour incubation at 37° C., 5% CO2. ^13C-labeled acetate (Sigma-Aldrich cat #279315-1G) was added to the culture medium at a concentration of 10 mM and the cells were incubated for 24 hours at 37° C., 5% CO2.
# In order to analyze the lipid content of the HepG2 cells, the culture medium was removed and the cells were lysed by adding 30 μL of 0.1 M NaOH. After 5 minutes of incubation at room temperature, 15 μL of cell lysate was transferred to a 384-well deep-well plate (Sigma-Aldrich cat #BR701355-48EA) containing 15 μL of 7.3% KOH in ethanol and mixed. This plate was sealed and incubated at 70° C. for 4 hours to hydrolyze the lipids to free fatty acids. 100 μL of acetonitrile was then added and the plate was spun at 3,700 g for 20 minutes to separate the organic and aqueous phases. 50 μL from the top (organic) phase was transferred to a new 384-well plate (NUNC cat #264573) and the samples were analyzed by mass spectrometry using a RapidFire coupled to a QTOF mass spectrometer. The sum of the area under curve (AUC) for palmitate containing 3 to 7 ^13C was normalized with the AUC of oleate and plotted against compound concentration to determine the potency of ACC inhibitors. […]
L/P Ratio (2 h) [1],L/P Ratio (24 h) [1],pEC50 (HepG2 cells),SMILES
442,1106,8.35,"Cc1c(-c2ncco2)sc2c1c(=O)n(C(C)(C)C(=O)NS(=O)(=O)C1(C)CC1)c(=O)n2C[C@H](O[C@@H]1C[C@H]2CC[C@@H](C1)O2)c1cc(F)ccc1OC(F)F [Example 6, 2-(1-((R)-2-(((1R,3s,5S)-8-oxabicyclo[3.2.1]octan-3-yl)oxy)-2-(2-(difluoromethoxy)-5-fluorophenyl)ethyl)-5-methyl-6-(oxazol-2-yl)-2,4-dioxo-1,4-dihydrothieno[2,3-d]pyrimidin-3(2H)-yl)-2-methyl-N-((1-methylcyclopropyl)sulfonyl)propanamide]"
145,136,8.77,"COc1ccccc1[C@H](Cn1c(=O)n(C2(C(=O)NS(=O)(=O)C3(C)CC3)CC2)c(=O)c2c(C)c(-c3ncco3)sc21)O[C@@H]1C[C@H]2CC[C@@H](C1)O2 [Example 12, 1-(1-((R)-2-(((1R,3s,5S)-8-oxabicyclo[3.2.1]octan-3-yl)oxy)-2-(2-methoxyphenyl)ethyl)-5-methyl-6-(oxazol-2-yl)-2,4-dioxo-1,4-dihydrothieno[2,3-d]pyrimidin-3(2H)-yl)-N-((1-methylcyclopropyl)sulfonyl)cyclopropane-1-carboxamide]"
2515,2914,9.52,"COc1ccc(F)cc1[C@H](Cn1c(=O)n(C(C)(C)C(=O)NS(=O)(=O)C2(C)CC2)c(=O)c2c(C)c(-n3nccn3)sc21)O[C@@H]1C[C@H]2CC[C@@H](C1)O2 [Example 20, 2-(1-((R)-2-(((1R,3s,5S)-8-oxabicyclo[3.2.1]octan-3-yl)oxy)-2-(5-fluoro-2-methoxyphenyl)ethyl)-5-methyl-2,4-dioxo-6-(2H-1,2,3-triazol-2-yl)-1,4-dihydrothieno[2,3-d]pyrimidin-3(2H)-yl)-2-methyl-N-((1-methylcyclopropyl)sulfonyl)propanamide]"
